The numbers were not newly measured in patent publication US8470822B2, “Folate mimetics and folate-receptor binding conjugates thereof” (Purdue Research Foundation, priority 2001, dated 2013), which cites them from elsewhere.

In this data set the test system is high-affinity folate receptor. The settings on record: 2 μM pteroic acid (100-fold excess); cited from earlier work.

`Nc1nc2ncc(CNc3ccc(C(=O)O)cc3)nc2c(=O)[nH]1` [pteroic acid]: the “effect on the binding of folate to the folate receptor” value is listed as “absolutely no effect”.
